# Data published in patent US11214803B2, “Modulators of YAP1 expression” (Ionis Pharmaceuticals, Inc., priority 2019, dated 2022).
# Strand notation (5' to 3'): a small letter for the sugar, then the base; units joined by * are phosphorothioate-linked, units joined directly phosphodiester-linked; [ ] holds rarer units or linkages, { } end groups; capitals alone tell only the bases. e = 2'-O-(2-methoxyethyl) (MOE); k = constrained ethyl (cEt); [5mC] = 5-methylcytosine; d = 2'-deoxy (DNA); m = 2'-O-methyl
# Test system: Yap1 mRNA
# Assay: Dose-dependent inhibition of human Yap1 in SNU-449 cells (Example 9, RTS36584)
# Type: cell-based
# Settings: free uptake; for % UTC (Yap1 mRNA): approximately 48 hours; for IC50: linear regression on a log/linear plot
# In short: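 Read-out was Yap1 mRNA (primer-probe RTS36584) normalised to total RNA by RIBOGREEN, given as % of untreated cells, with IC50 fitted by linear regression of log/linear data. Oligonucleotides were dosed by free uptake to SNU-449 cells, 10,000/well, for ~48 h.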
Substance,% UTC (Yap1 mRNA) (31.3 nM) [% UTC],% UTC (Yap1 mRNA) (125.0 nM) [% UTC],% UTC (Yap1 mRNA) (500.0 nM) [% UTC],% UTC (Yap1 mRNA) (2000.00 nM) [% UTC],IC50 [nM]
1198504 (kT*k[5mC]*dA*dG*dA*dT*dT*dT*dA*dG*dG*eA*kT*eG*k[5mC]*eA; antisense) [compound 1198504],77,46,27,24,100
1200784 (kT*kG*kT*d[5mC]*dT*mC*dA*dT*dG*d[5mC]*d[5mC]*dT*dT*kA*kT*kA; antisense) [compound 1200784],70,51,26,12,100
1198203 (kG*kG*dA*dA*dA*dT*dT*dG*dT*d[5mC]*dT*e[5mC]*eA*eT*kG*k[5mC]) [compound 1198203],71,51,25,11,100
1009325 (kA*kG*kA*dG*dT*dA*dT*dG*dT*dG*dG*d[5mC]*dA*kA*kT*kA; antisense) [compound 1009325],59,36,16,4,100
1095593 (kT*kG*dA*dG*dG*dT*dA*dT*dA*dA*d[5mC]*eT*eG*eG*kG*k[5mC]; antisense) [compound 1095593],73,44,27,10,100
1198397 (k[5mC]*dA*d[5mC]*dT*dT*dT*dT*dA*d[5mC]*dA*dT*kT*eA*kG*eG*kA; antisense) [compound 1198397],70,53,28,14,100
1198570 (kG*k[5mC]*kA*d[5mC]*dT*dT*dT*dT*dA*d[5mC]*dA*dT*kT*kA*kG*eG) [compound 1198570],58,33,16,9,40
1197177 (kA*kT*kT*dG*dT*d[5mC]*dT*d[5mC]*dA*dT*dG*d[5mC]*d[5mC]*kT*kT*kA; antisense) [compound 1197177],56,29,8,2,30
1097247 (kT*kA*kA*dA*dG*dT*dG*dT*dA*dT*dG*dT*d[5mC]*kA*kG*kA; antisense) [compound 1097247],58,28,8,2,40
1198613 (kA*kA*kA*dG*dT*dG*dT*dA*dT*dG*dT*d[5mC]*kA*kG*kA*eA; antisense) [compound 1198613],80,25,7,2,100
1198371 (kA*dT*dT*dG*dT*d[5mC]*dT*d[5mC]*dA*dT*dG*k[5mC]*e[5mC]*kT*eT*kA; antisense) [compound 1198371],85,66,46,21,300
1198624 (kA*k[5mC]*kT*dA*dA*dG*dT*dA*dA*dG*dG*dT*kT*kT*k[5mC]*e[5mC]; antisense) [compound 1198624],62,37,21,9,100
1198611 (kA*kG*kT*dG*dT*dA*dT*dG*dT*d[5mC]*dA*dG*kA*kA*kG*eA; antisense) [compound 1198611],37,19,4,1,< 30
1198438 (kT*dG*dT*dA*dT*dG*dT*d[5mC]*dA*dG*dA*kA*eG*kA*eG*kT) [compound 1198438],62,28,7,2,40
1198614 (kT*kA*kA*dA*dG*dT*dG*dT*dA*dT*dG*dT*k[5mC]*kA*kG*eA; antisense) [compound 1198614],69,26,3,1,100
1198466 (kA*kG*dA*dG*dT*dA*dT*dG*dT*dG*dG*e[5mC]*kA*eA*kT*eA; antisense) [compound 1198466],68,44,18,6,100
1198294 (kA*kG*kA*dG*dT*dA*dT*dG*dT*dG*dG*d[5mC]*kA*eA*kT*eA; antisense) [compound 1198294],59,33,14,5,50
"1198578 (GCTTTGGAAGATCTGA; modified gapmer, chemistry not fully specified) [compound 1198578]",73,45,25,12,100
1198697 (kA*kG*dT*dG*dT*dA*dT*dG*dT*d[5mC]*dA*dG*kA*eA*kG*eA) [compound 1198697],60,29,7,1,40
1200788 (kG*kA*kA*dA*dT*mU*dG*dT*d[5mC]*dT*d[5mC]*dA*dT*kG*k[5mC]*k[5mC]) [compound 1200788],61,38,19,9,100
1200785 (kA*kT*kT*dG*dT*mC*dT*d[5mC]*dA*dT*dG*d[5mC]*d[5mC]*kT*kT*kA; antisense) [compound 1200785],98,73,42,24,400
1197309 (kG*kT*kA*dA*mU*dA*dT*dT*dG*d[5mC]*dA*dA*dT*k[5mC]*kT*kG; antisense) [compound 1197309],91,63,30,9,200
1200862 (kT*kT*kT*dA*dA*mA*dG*dT*dG*dT*dA*dT*dG*kT*k[5mC]*kA; antisense) [compound 1200862],88,64,35,13,200
